The results in this text go back to US11701377B2, “Methods for treating cancers by prodrugs of clofarabine” (priority 2016, dated 2023).

Series [1] in a line: In Vitro Metabolic Conversion Assay Using Human Plasma. The series is classed as in vitro ADME. As to conditions: incubation with human plasma at 15 µg/mL, 37° C., 60 minutes, HPLC. The procedure:
Method F: In Vitro Metabolic Conversion Assay Using Human Plasma. A representative compound (Example 1, Compound 3) was incubated with human plasma at 15 µg/mL. Incubations were carried out at 37° C. in a shaker water bath. Samples were taken at 0, 10, 30 and 60 minutes, quenched with 25 μL of trifluoroacetic acid, and then centrifuged at 25,000 g for 3 minutes at 4° C. The supernatant of each sample was collected and analyzed using HPLC to monitor the formation of clofarabine. FIG. 1 illustrates the results for incubations performed at 37° C.

Series [2] relates to human K562 chronic myelogenous leukemia cell line. In words: In Vitro Anti-proliferative Assay Using Human K562 Leukemia Cell Line. It is filed as cell-based. The note with it: K562 cells, 72 hours, 37° C., 5% CO2, triplicates, cell viability. As to the method: Method H: In Vitro Anti-proliferative Assay Using Human K562 Leukemia Cell Line. A representative compound (Example 1, Compound 3) was assessed for its anti-proliferative activity against human K562 chronic myelogenous leukemia cell line at various concentrations ranging from 10 μM to 0.005 μM in triplicates. Incubations were carried out at 37° C., 5% CO2, under humidified atmosphere for 72 hours. After incubation, cell viability was examined.

The term IC50 denotes the concentration at which inhibition is half-maximal. A lower IC50 goes with higher potency. Take `CCOC(=O)OC[C@H]1O[C@@H](n2cnc3c(N)nc(Cl)nc32)[C@@H](F)[C@@H]1O` [Compound 3, (2R,3R,4S,5R)-5-(6-Amino-2-chloropurin-9-yl)-2-(ethoxycarbonyloxymethyl)-4-fluoro-oxolan-3-ol]: the “metabolic conversion in human plasma (depletion of prodrug, formation of clofarabine)” value in series [1] is recorded as “depletion of 3 was observed along with the formation of clofarabine as its metabolite”. In series [2], this compound yielded an IC50 of 324 ± 18 nM.
